pIC50: −log10 of the molar value.
What was measured:
CA1 pyramidal neurons = assay: Intrinsic excitability (evoked action potentials) of CA1 pyramidal neurons, brain slice whole-cell current clamp; format: cell-based, mouse
Experimental: Three hundred micrometer coronal hippocampal slices were cut on a vibratome (VT1200; Leica) for whole-cell patch-clamp experiments. Slices were incubated for a minimum of 1 hour in the incubation solution at room temperature before patching.
Brain slices were transferred to a submerged recording chamber on an upright microscope (Slicescope Pro 1000; Scientifica) and were perfused (2 ml/min) with the extracellular artificial cerebral spinal fluid (aCSF) recording solution at 32° C.
CA1 pyramidal neurons were identified visually in the stratum pyramidale of the CA1 region of the hippocampus, using infrared-oblique illumination microscopy with a 40× water-immersion objective (Olympus) using a camera (Dage IR-2000; Dage). […] Patch-clamp recordings were made using a micromanipulator (MPC-200; Sutter) and Axon Multiclamp 700B patch-clamp amplifier (MDS). Data were acquired using pClamp software (v10; MDS) using a sampling rate of 50 kHz and low pass Bessel filtered at 10 kHz (Digidata 1550b; Axon).
Studies were performed using whole-cell current clamp recording mode. […] Once the whole-cell configuration was obtained for 2 minutes, a holding current was injected to maintain a membrane potential of approximately −70 mV. Current steps (injected current of between −60 to 340 pA in 20 pA steps, 400 ms duration) (FIG. 1B)) were applied in current clamp mode. The amplitude of current injections was relative to the holding current. A test pulse (−5 pA amplitude, 50 ms duration) was applied 650 ms after the termination of the main current step. The inter sweep interval was 5 seconds (0.2 Hz). To be included in the study, a cell had to have an access resistance of less than 20 M2 and a holding current of less than −200 pA. Once baseline action potential firing was determined in the presence of the extracellular aCSF recording solution (baseline), Compound 1 (300 nM or 3 μM) was washed onto the slice for 5 minutes before repeating the action potential generating protocol (FIG. 1B).
Data were analyzed using Axograph X software. Individual action potentials were identified and counted using a +50 mV amplitude threshold relative to pre-event baseline. The frequencies of action potentials generated were plotted for each of the current injections to create an input-frequency relationship for each cell. Action potential amplitudes were determined relative to the pre-event baseline at the +200 pA current injection step for each cell. Once an action potential count had less than three cells contributing to the averaged amplitude, it was excluded from analysis. For statistical comparisons between groups, the total number of action potentials fired per cell was calculated. Statistical analysis was performed using GraphPad Prism software (v8). […]

human NaV1.6 = biological target: T1, human NaV1.6 (Homo sapiens, UniProt Q9UQD0); assay: Peak INa tonic block (TB), PatchXpress patch clamp; format: cell-based
T1 construct: stably expressing either human NaV1.6 (NP_055006); expressed in transfected cells
Experimental: HEK-293 cell lines stably expressing either human NaV1.6 (NP_055006), mouse NaV1.6 (NP_035453.2), or rat NaV1.6 (NP_062139) were used. All cells were seeded at 2×10^6 cells per Nunc T75 flask for 2 days in culture. At time of harvest for assays, the cell counts were approximately 6×10^6 cells. Cells were washed (1×) in DPBS (Hyclone, Cat #SH30028.03) for approximately 30 seconds. 1 mL of 1×0.05% Trypsin-EDTA (GIBCO Cat #25300-054) was added and swirled around to cover the bottom of the flask and was allowed to sit on the cells for approximately 4 minutes (±90% of the cells were lifted by light tapping of the flask). 10 mL of warmed media (DMEM high glucose media Hyclone, SH30022.02 supplemented with 10% Fetal Bovine Serum, 2 mM Sodium Pyruvate, 10 mM HEPES and 400 μg/mL G418) was added to inactivate the trypsin. Cells were triturated until a single cell suspension was achieved. A cell count was performed and cells were aliquoted into a 250 ml centrifuge tube at a concentration of 2×10^5/mL in +30 ml of prewarmed media. The 250 mL centrifuge tube was placed on a rocker in an incubator set at 28° C. and gently rocked for approximately 1 hour to allow cells to recover. Cell aliquots of 5 mL (1×10^6 cells) were placed in a 15 mL centrifuge tube and spun at 100×g for 2 minutes. Supernatant was removed leaving a cell pellet. 100 μL of external recording solution was added to the pellet and triturated 20 times to achieve a single cell suspension and then transferred to a 1.5 mL tube for placement in the PatchXpress® (Molecular Devices).
Compound 1 was provided as powder and prepared as 10 mM DMSO stocks in 1 dram glass vials prior to assay. Immediately prior to assay, Compound 1 was diluted with DMSO to 300×, the designated final assay concentration. Assay dilutions (1× concentration) were prepared by pipetting 3 μL of diluted Compound 1 into 897 μL of extracellular solution in a 1 mL glass shell vial. Vials were capped and vortexed until initiation of the PatchXpress® (Molecular Devices) recording protocol.
The same intracellular recording solution was used for the persistent and peak INa assays, which contained: 135 mM CsF, 10 mM CsCl, 5 mM NaCl, 10 mM HEPES, 5 mM EGTA at a pH of 7.4 (adjusted with CsOH) and a measured osmolarity of 298 mOsm (adjusted with mannitol). For the persistent INa assay, the external recording solution contained: 135 mM NaCl, 5.4 mM KCl, 5 mM glucose, 2 mM CaCl2), 1 mM MgCl2, 10 mM HEPES, and 200 nM ATX-II (sea anemone toxin, Alomone Labs; Jerusalem, Israel) at a pH of 7.4 (adjusted with NaOH) and a measured osmolarity of 300 mOsm (adjusted with mannitol). For the peak INa assays, the external recording solution contained: 100 mM NaCl, 35 mM NMDG, 5.4 mM KCl, 5 mM glucose, 2 mM CaCl2), 1 mM MgCl2, and 10 mM HEPES at a pH of 7.4 (adjusted with NaOH) and a measured osmolarity of 300 mOsm (adjusted with mannitol).
All studies were performed using the PatchXpress® (Molecular Devices) automated patch clamp platform (Molecular Devices) using the whole cell configuration. Recordings were performed at room temperature. Data were collected using Patch Commander software (Molecular Devices) and processed using DataXpress 2.0 (Molecular Devices). Cell acceptance criteria were continuously monitored by custom scripts during the recording. Acceptance criteria for all assays were: baseline peak INa>800 pA, Rseal>200 MΩ, and, where appropriate, persistent INa>100 pA. Compensation was 50% and leak subtraction was not used. Currents were filtered at 5 kHz and digitized at 32.5 kHz. Raccess and Rseal were monitored throughout the recording and cells with Raccess>10 MΩ or Rseal<200 MΩ were terminated automatically by script.
Tonic Block (TB): Tonic Block (TB) protocols used low stimulation rates (about 0.1 Hz) and negative potentials (−120 mV) to keep channels in closed (resting) states. Pharmacology was measured during peak INa in response to step to 0 mV. No leak subtraction was used.

hNaV1.1 = hNaV1.1 (Homo sapiens, UniProt P35498); assay: Persistent INa, patch clamp; format: cell-based
Experimental: (§1) Late (persistent) current Block: The inhibition of ATX-II activated late current was measured using a 200 ms voltage step to 0 mV. Protocols used low stimulation rates (about 0.1 Hz) and negative potentials (−120 mV) to keep channels in closed (resting) states. Pharmacology was measured as the mean INa during the final 20 ms of the step to 0 mV and leak subtraction was not used.

hNaV1.2 = hNaV1.2 (Homo sapiens, UniProt Q99250); assay: Persistent INa, patch clamp; format: cell-based
Experimental: as §1

hNaV1.5 = hNaV1.5 (Homo sapiens, UniProt Q14524); assay: Persistent INa, patch clamp; format: cell-based
Experimental: as §1

[1] = test system: Scn8a^N1768D/+ transgenic mouse; assay: Audiogenic induced seizures in Scn8a N1768D/+ mouse model; format: in vivo
Experimental: Both male and female N1768D (D/+) mice, 8-12 weeks old, were used in the study. Compound 1 was administered orally (p.o.) at three doses (1 mg/kg, 3 mg/kg, 10 mg/kg) and also vehicle 1 hour prior to testing. The mice were randomized such that at the completion of the study each individual mouse had been evaluated at each test dose of Compound 1 and vehicle. A minimum of 3 days was allowed to elapse before retesting the mice. At the time of testing, mice were taken from their home cage and transferred to a clean test cage located in a separate testing room where they were allowed to acclimate for about 20 seconds before the onset of the acoustic stimulus. To induce audiogenic seizures, a 15 kHz signal was generated using Tone Generator software (NCH Software, Inc.), amplified using a Kinter K3118 stereo amplifier (Kinter USA), and converted to sound using a small 3-watt speaker lowered into the testing chamber. The stimulus was applied for 30 seconds unless a seizure was detected before the 30-second time point, in which case the audiogenic stimulus was terminated. Videos of the event were recorded using a laptop webcam. On the final day of testing, brains and plasma were collected from the D/+ mice immediately after audiogenic seizure testing to determine concentrations of Compound 1. A separate cohort of 8 age-matched WT mice were also included (n=2/dose level) to achieve a sample size of n=4 for PK for each dose level. Brain and plasma specimens were submitted for bioanalytical analysis.

T1 sequence (Q9UQD0 whole entry): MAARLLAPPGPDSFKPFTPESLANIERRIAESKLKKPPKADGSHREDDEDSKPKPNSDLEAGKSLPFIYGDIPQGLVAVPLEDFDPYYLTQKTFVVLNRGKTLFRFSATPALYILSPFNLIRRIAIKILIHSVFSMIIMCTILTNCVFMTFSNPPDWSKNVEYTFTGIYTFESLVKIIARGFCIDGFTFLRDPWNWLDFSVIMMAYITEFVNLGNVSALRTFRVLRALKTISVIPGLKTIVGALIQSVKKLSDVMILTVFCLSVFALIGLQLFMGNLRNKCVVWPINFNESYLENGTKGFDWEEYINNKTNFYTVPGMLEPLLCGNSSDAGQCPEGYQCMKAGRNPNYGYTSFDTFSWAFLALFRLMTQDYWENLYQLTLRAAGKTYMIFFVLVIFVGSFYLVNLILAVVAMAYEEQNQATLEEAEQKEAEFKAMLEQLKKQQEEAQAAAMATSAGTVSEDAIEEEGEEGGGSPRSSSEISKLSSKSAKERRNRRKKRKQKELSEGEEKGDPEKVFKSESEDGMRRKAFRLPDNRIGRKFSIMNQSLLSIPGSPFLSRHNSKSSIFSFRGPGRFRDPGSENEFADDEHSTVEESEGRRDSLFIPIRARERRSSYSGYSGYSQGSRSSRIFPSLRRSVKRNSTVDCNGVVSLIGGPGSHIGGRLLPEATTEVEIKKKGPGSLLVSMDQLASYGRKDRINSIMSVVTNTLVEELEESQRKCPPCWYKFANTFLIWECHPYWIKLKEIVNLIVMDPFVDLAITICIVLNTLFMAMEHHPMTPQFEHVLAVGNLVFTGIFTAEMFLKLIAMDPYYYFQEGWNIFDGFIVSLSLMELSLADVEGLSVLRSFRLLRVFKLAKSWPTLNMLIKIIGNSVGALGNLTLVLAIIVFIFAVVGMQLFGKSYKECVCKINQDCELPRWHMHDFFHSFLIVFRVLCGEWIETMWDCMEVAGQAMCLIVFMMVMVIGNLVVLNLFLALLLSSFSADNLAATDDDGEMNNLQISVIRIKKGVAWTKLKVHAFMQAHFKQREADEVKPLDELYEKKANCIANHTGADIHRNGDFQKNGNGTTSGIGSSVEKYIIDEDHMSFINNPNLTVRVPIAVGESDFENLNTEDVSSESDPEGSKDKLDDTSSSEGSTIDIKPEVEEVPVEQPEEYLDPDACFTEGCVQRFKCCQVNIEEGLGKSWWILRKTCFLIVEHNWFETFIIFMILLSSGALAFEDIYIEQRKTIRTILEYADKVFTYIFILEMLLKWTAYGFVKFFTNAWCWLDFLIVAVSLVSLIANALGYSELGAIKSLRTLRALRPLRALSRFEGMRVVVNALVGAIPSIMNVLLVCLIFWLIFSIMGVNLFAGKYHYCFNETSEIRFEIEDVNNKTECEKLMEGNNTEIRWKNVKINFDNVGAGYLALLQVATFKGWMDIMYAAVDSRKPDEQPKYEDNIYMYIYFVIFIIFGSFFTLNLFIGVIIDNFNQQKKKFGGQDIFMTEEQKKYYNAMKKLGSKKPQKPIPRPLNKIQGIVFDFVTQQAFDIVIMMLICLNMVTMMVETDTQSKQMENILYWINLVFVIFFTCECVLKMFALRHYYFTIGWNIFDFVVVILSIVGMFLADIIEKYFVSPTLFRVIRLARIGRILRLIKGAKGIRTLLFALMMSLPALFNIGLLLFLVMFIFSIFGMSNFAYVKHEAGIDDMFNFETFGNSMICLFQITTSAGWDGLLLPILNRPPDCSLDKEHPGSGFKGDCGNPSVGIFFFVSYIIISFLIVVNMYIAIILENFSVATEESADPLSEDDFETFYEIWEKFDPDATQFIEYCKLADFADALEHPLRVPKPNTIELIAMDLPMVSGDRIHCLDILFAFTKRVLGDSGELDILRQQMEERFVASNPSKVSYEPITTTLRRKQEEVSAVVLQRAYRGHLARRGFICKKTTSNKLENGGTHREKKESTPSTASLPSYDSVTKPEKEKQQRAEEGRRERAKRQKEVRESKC
hNaV1.2, sequence (Q99250 whole entry): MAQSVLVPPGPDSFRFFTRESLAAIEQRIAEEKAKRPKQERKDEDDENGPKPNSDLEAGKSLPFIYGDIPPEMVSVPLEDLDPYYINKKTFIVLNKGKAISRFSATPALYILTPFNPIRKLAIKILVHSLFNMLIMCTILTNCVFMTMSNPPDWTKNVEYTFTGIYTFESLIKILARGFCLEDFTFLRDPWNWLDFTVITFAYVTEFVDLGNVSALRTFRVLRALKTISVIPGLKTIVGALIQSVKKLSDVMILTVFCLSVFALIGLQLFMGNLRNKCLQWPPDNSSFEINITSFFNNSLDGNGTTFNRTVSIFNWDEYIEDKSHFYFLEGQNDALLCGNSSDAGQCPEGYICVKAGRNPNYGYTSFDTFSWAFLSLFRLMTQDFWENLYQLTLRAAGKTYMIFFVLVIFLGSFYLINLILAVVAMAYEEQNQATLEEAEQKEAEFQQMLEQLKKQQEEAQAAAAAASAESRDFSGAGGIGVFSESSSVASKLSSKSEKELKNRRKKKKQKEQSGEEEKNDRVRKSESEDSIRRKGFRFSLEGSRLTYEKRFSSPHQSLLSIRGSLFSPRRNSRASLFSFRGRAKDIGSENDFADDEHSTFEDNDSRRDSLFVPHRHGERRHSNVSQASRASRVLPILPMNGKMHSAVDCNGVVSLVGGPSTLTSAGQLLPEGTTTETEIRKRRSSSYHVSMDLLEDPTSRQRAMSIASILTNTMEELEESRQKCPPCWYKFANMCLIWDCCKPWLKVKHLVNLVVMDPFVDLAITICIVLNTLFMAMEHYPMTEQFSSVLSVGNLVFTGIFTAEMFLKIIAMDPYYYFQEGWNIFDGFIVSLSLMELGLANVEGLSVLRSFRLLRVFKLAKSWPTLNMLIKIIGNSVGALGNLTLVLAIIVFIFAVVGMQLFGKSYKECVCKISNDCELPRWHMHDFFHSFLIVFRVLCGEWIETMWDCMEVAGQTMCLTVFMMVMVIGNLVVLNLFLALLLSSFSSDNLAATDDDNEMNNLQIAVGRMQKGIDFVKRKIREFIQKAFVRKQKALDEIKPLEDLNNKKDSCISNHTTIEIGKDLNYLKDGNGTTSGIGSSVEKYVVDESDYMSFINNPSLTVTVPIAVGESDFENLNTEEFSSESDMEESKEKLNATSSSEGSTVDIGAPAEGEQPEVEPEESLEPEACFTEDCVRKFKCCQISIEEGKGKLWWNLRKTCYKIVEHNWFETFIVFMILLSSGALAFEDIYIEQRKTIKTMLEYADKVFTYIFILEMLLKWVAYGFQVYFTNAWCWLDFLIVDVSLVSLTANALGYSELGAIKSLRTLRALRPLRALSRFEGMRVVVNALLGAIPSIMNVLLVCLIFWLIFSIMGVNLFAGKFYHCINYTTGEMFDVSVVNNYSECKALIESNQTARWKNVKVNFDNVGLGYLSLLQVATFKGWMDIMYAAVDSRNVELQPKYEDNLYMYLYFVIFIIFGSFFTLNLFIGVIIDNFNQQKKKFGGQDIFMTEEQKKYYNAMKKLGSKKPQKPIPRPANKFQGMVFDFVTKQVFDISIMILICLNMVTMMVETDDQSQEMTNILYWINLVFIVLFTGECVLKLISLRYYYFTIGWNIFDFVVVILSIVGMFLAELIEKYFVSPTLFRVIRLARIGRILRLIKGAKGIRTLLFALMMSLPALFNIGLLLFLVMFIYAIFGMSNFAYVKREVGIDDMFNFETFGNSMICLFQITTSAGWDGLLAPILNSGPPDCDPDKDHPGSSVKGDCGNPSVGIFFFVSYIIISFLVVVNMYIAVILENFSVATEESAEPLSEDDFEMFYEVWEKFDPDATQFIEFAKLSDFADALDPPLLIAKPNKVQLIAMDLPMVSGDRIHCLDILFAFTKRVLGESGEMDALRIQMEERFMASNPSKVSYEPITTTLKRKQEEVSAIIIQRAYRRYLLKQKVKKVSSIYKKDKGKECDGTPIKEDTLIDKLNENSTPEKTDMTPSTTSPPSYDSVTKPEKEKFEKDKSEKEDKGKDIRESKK

CCOC(F)(F)c1nnc2cnc(-c3cnc(OCC(F)(F)F)c(F)c3)cn12 [Compound 1, 3-(ethoxydifluoromethyl)-6-(5-fluoro-6-(2,2,2-trifluoroethoxy)pyridin-3-yl)-[1,2,4]triazolo[4,3-a]pyrazine] was tested, and the “intrinsic excitability, number of evoked APs” value (CA1 pyramidal neurons; 0.3 μmol/L (peak INa VDB IC50)) was “significantly reduced”, the AP amplitude (CA1 pyramidal neurons; +200 pA current injection, 0.3 μmol/L Compound 1, 45 μmol/L CBZ) was “without compromising” and the “number of action potentials generated / action potential firing frequency vs baseline” value (CA1 pyramidal neurons; Compound 1 at 0.3 and 3 μM, wildtype mice) was “significantly reduced”. The “Ratio to Pers. INa (Peak INa TB / persistent INa)” value (human NaV1.6; hNaV1.6) was 60, the pIC50 (human NaV1.6; hNaV1.6, 0.1 Hz, resting state) was 5.07 and the pIC50 (hNaV1.1) was 6.96. For the same molecule, the pIC50 (hNaV1.2) was 6.76, the pIC50 (hNaV1.5) was 6.76 and the “protection from audiogenic seizures” value ([1]; 10 mg/kg p.o.) was “complete protection”. For the same molecule, the “inhibition of audiogenic seizures” value ([1]; 1, 3, 10 mg/kg p.o., 1 hour prior to testing) was “dose dependent inhibition” and the “protection from seizures (FIG. 14B)” value ([1]; Scn8a N1768D DEE mouse model) was “completely block seizures”.

Reference: patent US12582652B2, “3-(ethoxydifluoromethyl)-6-(5-fluoro-6-(2,2,2-trifluoroethoxy)pyridin-3-yl)-[1,2,4]triazolo[4,3-a]pyrazine as an ion channel modulator” (Praxis Precision Medicines, Inc., priority 2022, dated 2026)
